# Tests used:
# PI3Kα kinase = target: T1, PI3Kα kinase (Homo sapiens, UniProt P42336); assay: Kinase assay (PI3Kα); format: biochemical; details: read-out: IC50 (μM) for PI3K inhibition
# T1 construct: purchased Millipore, USA
# Outline: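 Recombinant PI3Kα (20 ng) phosphorylated 12.5 μg phosphatidylinositol with 10 μM ATP and 1 μCi ^32γ P […] in 10 mM Hepes pH 7.5, 50 mM MgCl2 for 20 min at 30° C. Lipids were extracted with MeOH/CHCl3, resolved by TLC, and labelled PI quantified by autoradiography densitometry; PI-103 served as standard.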
# mTOR = target: T2, mTOR (Homo sapiens, UniProt P42345); assay: mTOR activity assay (cell ELISA, Phospho-AKT Ser 473, A2780 cells); format: cell-based; details: for inhibition at 1 µM: read-out: % Inhibition of mTOR activity at 1 μM
# T2 construct: endogenous in cells; host or cells: A2780 ovarian cell line (ATCC)
# Experimental: Seed cells (Ovarian cell line A2780, ATCC) were plated in a 96 well microtitre plate at a density of 50,000 cells/cm^2 in appropriate complete cell culture medium. The cells were allowed to adhere for 18-24 hours. The cells were allowed to starve for 24 hours. […] Then the cells were stimulated with 20% FCS for 30 minutes. A typical assay would consist of a set of unstimulated cells, a set of stimulated cells and a set of cells treated with compounds of present invention and a set of cells treated with the stimulator. The medium was discarded. The cells were fixed with 100 μL of 3.7% formaldehyde for 15 minutes. The formaldehyde was discarded by inverting the plate and tapping it on a thick tissue paper layer to remove traces. The cells were washed and permeabilized with 200 μL PBS+Triton-X 100 solution (hereafter referred to as PBS-Triton, containing 0.1% triton-X 100 in 1×PBS) three times, incubating the cells each time for 5 minutes. 100 μL blocking solution (10% FCS in PBS-Triton) was added and incubated for 1 hour at 25° C. The blocking solution was discarded and cells were incubated with the primary antibody in PBS-Triton at a dilution of 1:500 for 1 hour at RT (25° C.). [The primary antibody is Phospho-AKT (Ser 473); Cell Signaling; Cat. No. 9271]. The primary antibody solution was discarded and the cells were washed 3 times with PBS-Triton solution and incubated with the HRP-conjugated secondary antibody in PBS-Triton at a dilution of 1:500 for 1 hour at RT (25° C.). The cells were washed 3 times with PBS-Triton followed by two washes with PBS (to remove traces of triton-X 100). The OPD (o-phenylene diamine dihydrochloride) substrate was prepared for detection of the signal by dissolving one tablet set (two tablets) of SigmaFast OPD (Sigma, Cat No. P9187) in 20 mL distilled water. It should be protected from light. 100 μL OPD solutions was added to the wells and the plate was incubated in the dark for 3-5 minutes (depending upon the development of the color). The reaction was stopped by adding 50 μL 2 N H2SO4. The absorbance was measured at 490 nm. The values were expressed in the treated samples, in terms of percentage or fold decrease in AKT phosphorylation with respect to the induced sample. PI-103 (Calbiochem, USA) was used as a standard.
# A549 = assay: Cytotoxicity assay (propidium iodide), A549; format: cell-based; details: Homo sapiens; A549 (C1a, lung); 48 hours
# H460 = assay: Cytotoxicity assay (propidium iodide), H460; format: cell-based; details: Homo sapiens, NCI-H460; H460 (C1b, lung); 48 hours
# Experimental: (§4) Cells from cell lines as mentioned in the table given below were seeded at a density of 3000 cells/well in a white opaque 96-well plate. Following incubation at 37° C./5% CO2 for a period of 18-24 hours, the cells were treated with various concentrations (stock solution was prepared in DMSO and subsequent dilutions were made in media as per ATCC guidelines) of the representative compounds of present invention (refer table 3) for a period of 48 hours. At the end of treatment, the spent culture medium was discarded, the cells were washed with 1×PBS and 200 μl of 7 μg/ml propidium iodide was added to each well. The plates were frozen at −70° C. for at least 24 hours. For analysis, the plates were brought to RT, allowed to thaw and were read in PolarStar fluorimeter with the fluorescence setting. The percentage of viable cells in the non treated set of wells was considered to be 100 and the percentage viability following treatment was calculated accordingly. IC50 values were calculated from graphs plotted using these percentages.
# MDA MB 468 = assay: Cytotoxicity assay (propidium iodide), MDA MB 468; format: cell-based; details: Homo sapiens; MDA MB 468 (C6b, breast); 48 hours
# Experimental: as §4
# MCF7 = assay: Cytotoxicity assay (propidium iodide), MCF7; format: cell-based; details: Homo sapiens; MCF7 (C6c, breast); 48 hours
# Experimental: as §4
# G361 = assay: Cytotoxicity assay (propidium iodide), G361; format: cell-based; details: G-361; G361 (C9a, human melanoma); 48 hours
# Experimental: as §4
# PC3 = assay: Cytotoxicity assay (propidium iodide), PC3; details: Homo sapiens, PC-3, 48 h, read-out: IC50 cytotoxicity
# A2780 = assay: Cytotoxicity assay (propidium iodide), A2780; format: cell-based; details: Homo sapiens; A2780 (C3a, ovarian); 48 hours
# Experimental: as §4
# BT 549 = assay: Cytotoxicity assay (propidium iodide), BT 549; format: cell-based; details: Homo sapiens; BT 549 (C6d, breast); 48 hours
# Experimental: as §4
# STAT3 = STAT3 bioassay (Hela Stat3-luc, luciferase); format: cell-based; details: Homo sapiens, Oncostatin M induction
# Outline: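 Hela Stat3-luc cells (20,000/well, 24 h) pretreated with compound 1 h, then induced with 100 ng/ml final Oncostatin M for 7-8 h at 37 °C. Luciferase luminescence after lysis; percent inhibition versus induction control, IC50 from these percentages.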
# IL-6 [1] = assay: Human monocyte assay, LPS-stimulated IL-6; format: cell-based; details: Monocyte; human monocytes, 1 μg/ml LPS, 5 hours
# Outline: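 Adherent human PBMC-derived monocytes (2×10^4/well) were cultured 48 h, preincubated 30 min with compound or 0.5% DMSO, then stimulated with 1 μg/ml E. coli LPS for 5 h at 37° C. TNF-α and IL-6 in supernatants were measured by ELISA.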
# IL-6 [2] = assay: Synovial tissue assay, IL-6; format: cell-based; details: Homo sapiens; synovial tissue cells from rheumatoid arthritis patients, 16 hours
# Experimental: (§1) The assay was designed as in the reference, Lancet, 2(8657), 244-7, Jul.
# (§2) Stock Solution: Compounds of the present invention were dissolved in DMSO to obtain a stock solution of 20 mM.
# (§3) Synovial tissue was obtained from rheumatoid arthritis patients undergoing knee replacement surgery. The tissue was minced into small pieces and digested in RPMI medium containing 100 U/ml penicillin-G, 100 μg/ml streptomycin, 50 ng/ml amphotericin B (GIBCO; USA), 1.33 mg/ml collagenase Type I (Worthington Biochemical Corporation, New Jersey), 0.5 μg/ml DNAse Type I (Sigma Aldrich; St. Louis, Mo.) and 8.33 U/ml heparin (Biological E. Limited, India) for 3 hours at 37° C., 5% CO2. The digested tissue was filtered through a membrane (mesh size 70 micron; Sigma Aldrich). Subsequently, the cells were washed 3 times and resuspended in complete medium (RPMI supplemented with 5% FBS and 5% human serum-AB+) at a concentration of 1×10^6 cells/ml. All cell washes in this assay were performed using Rosewall Park Memorial Institute (RPMI)-1640 medium (JRH; Australia). For the experiment, 100 μl of cell suspension was added to the wells of a 96-well culture plate. Following cell plating, 100 μl of the culture medium and 1 μl of various concentrations (0.01, 0.03, 0.1, 0.3, 1, 3, 10, 30 and 100 μM) of the compounds of present invention dissolved in DMSO were added to the cells. The final concentration of DMSO was adjusted to 0.5%. For experimental purposes, 1 μl of […] concentrated solution of the compounds of present invention were dissolved in 200 μl cell suspension to achieve a final concentration of 0.01, 0.03, 0.1, 0.3, 1, 3, 10, 30 and 100 μM. The vehicle (0.5% DMSO) was used as control. 10 μM dexamethasone (Sigma Aldrich) or 1 μM 7-hydroxyfluorinide (7HF) were used as standards for the experiments. The plates were incubated for 16 hours at 37° C., 5% CO2. Subsequently, the supernatants were harvested and stored at −70° C. The amounts of TNF-α, IL-6 and interleukin-8 (IL-8) in the supernatants were assayed using OptiEIA ELISA sets, (BD BioSciences Pharmingen). The protocol followed was as per manufacturers instructions. […] The cytotoxicity of test compounds in synovial cells was assessed by MTS assay. Absorbance was measured at 490 nm. Percent cytotoxicity was calculated by the equation: % Cytotoxicity=(A−B)/A×100 where, A is the absorbance of cells treated with DMSO alone and B is the absorbance of cells treated with the test article.
# TNF-α = assay: Synovial tissue assay, TNF-α; format: cell-based; details: Homo sapiens; synovial tissue cells from rheumatoid arthritis patients, 16 hours
# Experimental: as §1, §2, §3
# IL-8 = assay: Synovial tissue assay, IL-8; format: cell-based; details: Homo sapiens; synovial tissue cells from rheumatoid arthritis patients, 16 hours
# Experimental: as §1, §2, §3
# SKOV3 = assay: Cytotoxicity assay (propidium iodide), SKOV3; format: cell-based; details: Homo sapiens, SK-OV-3; SKOV3 (C3b, ovarian); 48 hours
# Experimental: as §4
# OVCAR 3 = assay: Cytotoxicity assay (propidium iodide), OVCAR 3; format: cell-based; details: Homo sapiens; OVCAR 3 (C3c, ovarian); 48 hours
# Experimental: as §4
# PANC 1 = assay: Cytotoxicity assay (propidium iodide), PANC 1; format: cell-based; details: Homo sapiens; PANC 1 (C5a, pancreatic); 48 hours
# Experimental: as §4
# CAPAN1 = assay: Cytotoxicity assay (propidium iodide), CAPAN1; format: cell-based; details: Homo sapiens, CAPAN-1; CAPAN1 (C5b, pancreatic); 48 hours
# Experimental: as §4
# HT29 = assay: Cytotoxicity assay (propidium iodide), HT29; format: cell-based; details: Homo sapiens, HT-29; HT29 (C4a, colon); 48 hours
# Experimental: as §4
# MDA MB 231 = assay: Cytotoxicity assay (propidium iodide), MDA MB 231; format: cell-based; details: Homo sapiens; MDA MB 231 (C6a, breast); 48 hours
# Experimental: as §4
# T1 sequence (P42336 whole entry): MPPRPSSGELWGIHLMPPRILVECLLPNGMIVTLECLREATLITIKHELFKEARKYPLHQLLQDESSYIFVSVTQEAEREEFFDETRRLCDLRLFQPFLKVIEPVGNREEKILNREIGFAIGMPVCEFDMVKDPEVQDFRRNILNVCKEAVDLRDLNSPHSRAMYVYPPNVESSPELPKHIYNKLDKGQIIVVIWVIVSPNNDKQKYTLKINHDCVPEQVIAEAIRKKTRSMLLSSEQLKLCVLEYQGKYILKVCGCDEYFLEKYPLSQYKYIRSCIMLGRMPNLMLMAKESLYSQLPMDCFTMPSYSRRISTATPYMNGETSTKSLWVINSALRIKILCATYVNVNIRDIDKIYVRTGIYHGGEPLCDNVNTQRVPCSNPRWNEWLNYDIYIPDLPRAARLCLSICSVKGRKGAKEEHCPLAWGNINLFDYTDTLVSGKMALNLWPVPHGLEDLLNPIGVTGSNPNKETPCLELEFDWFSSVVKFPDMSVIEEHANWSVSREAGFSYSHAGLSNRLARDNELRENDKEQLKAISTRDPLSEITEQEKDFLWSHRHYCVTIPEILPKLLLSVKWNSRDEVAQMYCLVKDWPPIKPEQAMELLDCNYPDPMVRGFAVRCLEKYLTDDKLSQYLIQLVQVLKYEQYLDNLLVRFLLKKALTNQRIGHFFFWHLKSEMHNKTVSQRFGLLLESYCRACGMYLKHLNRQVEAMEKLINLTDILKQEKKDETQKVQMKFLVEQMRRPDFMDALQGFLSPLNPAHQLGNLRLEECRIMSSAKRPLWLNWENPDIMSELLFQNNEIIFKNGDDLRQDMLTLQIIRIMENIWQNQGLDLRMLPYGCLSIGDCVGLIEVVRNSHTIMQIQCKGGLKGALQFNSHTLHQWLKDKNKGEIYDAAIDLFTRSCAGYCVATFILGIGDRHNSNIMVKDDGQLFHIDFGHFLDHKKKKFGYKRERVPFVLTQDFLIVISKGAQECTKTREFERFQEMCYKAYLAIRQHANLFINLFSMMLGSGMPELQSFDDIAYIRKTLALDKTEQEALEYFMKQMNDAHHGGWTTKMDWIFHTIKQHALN
# T1 sequence (P27986 whole entry partner): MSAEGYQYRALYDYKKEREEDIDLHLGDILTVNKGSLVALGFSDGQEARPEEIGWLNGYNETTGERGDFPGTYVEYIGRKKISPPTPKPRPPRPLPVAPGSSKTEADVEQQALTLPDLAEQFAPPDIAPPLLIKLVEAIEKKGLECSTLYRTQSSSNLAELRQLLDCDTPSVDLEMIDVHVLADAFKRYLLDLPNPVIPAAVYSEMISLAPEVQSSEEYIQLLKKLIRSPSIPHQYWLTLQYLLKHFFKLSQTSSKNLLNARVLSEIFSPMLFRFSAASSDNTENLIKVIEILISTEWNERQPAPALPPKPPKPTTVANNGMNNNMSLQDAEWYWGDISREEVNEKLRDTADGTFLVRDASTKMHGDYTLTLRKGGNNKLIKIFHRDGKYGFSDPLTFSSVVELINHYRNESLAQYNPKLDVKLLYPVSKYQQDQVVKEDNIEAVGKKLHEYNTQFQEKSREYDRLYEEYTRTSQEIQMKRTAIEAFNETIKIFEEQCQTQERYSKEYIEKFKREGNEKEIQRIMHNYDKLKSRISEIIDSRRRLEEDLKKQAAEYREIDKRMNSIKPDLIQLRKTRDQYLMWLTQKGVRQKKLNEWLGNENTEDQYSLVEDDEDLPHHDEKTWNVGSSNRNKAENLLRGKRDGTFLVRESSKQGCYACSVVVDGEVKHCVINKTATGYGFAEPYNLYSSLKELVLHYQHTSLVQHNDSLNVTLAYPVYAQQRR
Compound,IC50 (PI3Kα kinase),IC50 (IL-6 [1]),IC50 (A549),IC50 (H460),IC50 (MDA MB 468),IC50 (MCF7),IC50 (G361),IC50 (PC3),IC50 (A2780),other results
"CN(N=Cc1cnc2ccc(-c3cccnc3)cn12)S(=O)(=O)c1cccc(Br)c1 [Example 7, 3-Bromo-N-methyl-N′-((6-(pyridine-3-yl)imidazo[1,2-a]pyridine-3-yl)methylene) benzenesulfonohydrazide]",0.01 to 0.5 µM,–,> 5 µM,> 5 µM,> 5 µM,> 5 µM,> 5 µM,> 5 µM,–,inhibition at 1 µM (mTOR): 30 to 50%
"CN(N=Cc1cnc2ccc(-c3cccnc3)cn12)S(=O)(=O)c1ccccc1C#N [Example 9, 2-Cyano-N-methyl-N′-((6-(pyridine-3-yl)imidazo[1,2-a]pyridine-3-yl)methylene)benzenesulfonohydrazide]",–,0.001 to 5 µM,0.01 to 5 µM,0.01 to 5 µM,0.01 to 5 µM,–,–,0.01 to 5 µM,0.01 to 5 µM,IC50 (BT 549): 0.01 to 5 µM; IC50 (STAT3): 5 to 10 µM; IC50 (IL-6 [2]): 0.01 to 0.3 µM; IC50 (TNF-α): 0.01 to 0.3 µM; IC50 (IL-8): 0.3 to 3 µM
"CN(N=Cc1cnc2ccc(-c3cccnc3)cn12)S(=O)(=O)c1ccc(C#N)cc1 [Example 11, 4-Cyano-N-methyl-N′-((6-(pyridine-3-yl)imidazo[1,2-a]pyridine-3-yl)methylene)benzenesulfonohydrazide]",0.01 to 0.5 µM,≥ 5 µM,> 5 µM,> 5 µM,> 5 µM,–,–,> 5 µM,> 5 µM,inhibition at 1 µM (mTOR): 30 to 50%; IC50 (BT 549): > 5 µM
"CN(N=Cc1cnc2ccc(-c3cccnc3)cn12)S(=O)(=O)C1CCCCC1 [Example 31, N-methyl-N′-((6-(pyridine-3-yl)imidazo[1,2-a]pyridine-3-yl)methylene) cyclohexanesulfonohydrazide]",–,–,0.01 to 5 µM,0.01 to 5 µM,–,–,–,0.01 to 5 µM,0.01 to 5 µM,IC50 (HT29): > 5 µM; IC50 (MDA MB 231): 0.01 to 5 µM
"Cc1ccc([N+](=O)[O-])cc1S(=O)(=O)N(C)N=Cc1cnc2ccc(-c3ccncc3)cn12 [Example 85, N, 2-dimethyl-5-nitro-N′-((6-(pyridine-4-yl)imidazo[1,2-a]pyridine-3-yl)methylene) benzenesulfonohydrazide]",–,–,0.01 to 5 µM,0.01 to 5 µM,–,–,–,0.01 to 5 µM,0.01 to 5 µM,IC50 (HT29): > 5 µM; IC50 (MDA MB 231): 0.01 to 5 µM

# Further lines, with some results ahead:
IC50 (PI3Kα kinase),IC50 (IL-6 [1]),Compound,IC50 (A549),IC50 (H460),IC50 (MDA MB 468),IC50 (MCF7),IC50 (G361),IC50 (PC3),IC50 (A2780),other results
0.01 to 0.5 µM,–,"CN(N=Cc1cnc2ccc(-c3cccnc3)cn12)S(=O)(=O)c1ccc(F)c(Cl)c1 [Example 18, 3-Chloro-4-fluoro-N-methyl-N′-((6-(pyridine-3-yl)imidazo[1,2-a]pyridine-3-yl)methylene) benzenesulfonohydrazide]",> 5 µM,> 5 µM,> 5 µM,> 5 µM,> 5 µM,> 5 µM,–,–
0.01 to 0.5 µM,0.001 to 5 µM,"CN(N=Cc1cnc2ccc(-c3cccnc3)cn12)S(=O)(=O)c1c(F)cc(F)cc1Br [Example 26, 2-Bromo-4,6-difluoro-N-methyl-N′-((6-(pyridine-3-yl)imidazo[1,2-a]pyridine-3-yl)methylene) benzenesulfonohydrazide]",0.01 to 5 µM,0.01 to 5 µM,–,–,–,–,0.01 to 5 µM,inhibition at 10 µM (mTOR; 10 μM): > 50%; IC50 (SKOV3): 0.01 to 5 µM; IC50 (OVCAR 3): 0.01 to 5 µM; IC50 (PANC 1): 0.01 to 5 µM; IC50 (CAPAN1): 0.01 to 5 µM; IC50 (STAT3): 0.1 to 5 µM
0.01 to 0.5 µM,–,"Cc1cc(C)c(S(=O)(=O)N(C)N=Cc2cnc3ccc(-c4cccnc4)cn23)c(C)c1 [Example 27, N, 2,4,6-tetramethyl-N′-((6-(pyridine-3-yl)imidazo[1,2-a]pyridine-3-yl)methylene)benzenesulfonohydrazide]",> 5 µM,> 5 µM,> 5 µM,> 5 µM,> 5 µM,> 5 µM,–,–

# — patent US8741932B2, “Imidazopyridine derivatives” (Piramal Enterprises Limited, priority 2009, dated 2014)
